Measured values taken from the kinase profiling compilation of Christmann-Franck et al. (2016).

Key:
Test in all cases: KINOMEscan competition binding
Conditions in all cases: compound 10.0 µM
[1] = system: ABL1 (human), P00519 [E255K]
[2] = system: ABL1 (human), P00519 [M351T]
[3] = system: EGFR (human), P00533 [746-750 del]
[4] = system: EGFR (human), P00533 [G719S]
[5] = system: EGFR (human), P00533 [L861Q]
[6] = system: EGFR (human), P00533 [P753S; 747-752 del]
[7] = system: EIF2AK4 KD2 (human), Q9P2K8 [S808G]
[8] = system: FLT3 (human), P36888 [ITD]
[9] = system: FLT3 (human), P36888 [K663Q]
[10] = system: FLT3 (human), P36888 [N841I]
[11] = system: KIT (human), P10721 [D816V]
[12] = system: KIT (human), P10721 [V559D/T670I]
[13] = system: KIT (human), P10721 [V559D]
[14] = system: PIK3CA (human), P42336 [C420R]
[15] = system: PIK3CA (human), P42336 [E545A]
[16] = system: PIK3CA (human), P42336 [E545K]
[17] = system: PIK3CA (human), P42336 [H1047Y]
[18] = system: PIK3CA (human), P42336 [I800L]
[19] = system: PIK3CA (human), P42336 [Q546K]
PIK3CA (human), P42336 [Q546K], sequence (P42336 whole entry Q546K, looked up): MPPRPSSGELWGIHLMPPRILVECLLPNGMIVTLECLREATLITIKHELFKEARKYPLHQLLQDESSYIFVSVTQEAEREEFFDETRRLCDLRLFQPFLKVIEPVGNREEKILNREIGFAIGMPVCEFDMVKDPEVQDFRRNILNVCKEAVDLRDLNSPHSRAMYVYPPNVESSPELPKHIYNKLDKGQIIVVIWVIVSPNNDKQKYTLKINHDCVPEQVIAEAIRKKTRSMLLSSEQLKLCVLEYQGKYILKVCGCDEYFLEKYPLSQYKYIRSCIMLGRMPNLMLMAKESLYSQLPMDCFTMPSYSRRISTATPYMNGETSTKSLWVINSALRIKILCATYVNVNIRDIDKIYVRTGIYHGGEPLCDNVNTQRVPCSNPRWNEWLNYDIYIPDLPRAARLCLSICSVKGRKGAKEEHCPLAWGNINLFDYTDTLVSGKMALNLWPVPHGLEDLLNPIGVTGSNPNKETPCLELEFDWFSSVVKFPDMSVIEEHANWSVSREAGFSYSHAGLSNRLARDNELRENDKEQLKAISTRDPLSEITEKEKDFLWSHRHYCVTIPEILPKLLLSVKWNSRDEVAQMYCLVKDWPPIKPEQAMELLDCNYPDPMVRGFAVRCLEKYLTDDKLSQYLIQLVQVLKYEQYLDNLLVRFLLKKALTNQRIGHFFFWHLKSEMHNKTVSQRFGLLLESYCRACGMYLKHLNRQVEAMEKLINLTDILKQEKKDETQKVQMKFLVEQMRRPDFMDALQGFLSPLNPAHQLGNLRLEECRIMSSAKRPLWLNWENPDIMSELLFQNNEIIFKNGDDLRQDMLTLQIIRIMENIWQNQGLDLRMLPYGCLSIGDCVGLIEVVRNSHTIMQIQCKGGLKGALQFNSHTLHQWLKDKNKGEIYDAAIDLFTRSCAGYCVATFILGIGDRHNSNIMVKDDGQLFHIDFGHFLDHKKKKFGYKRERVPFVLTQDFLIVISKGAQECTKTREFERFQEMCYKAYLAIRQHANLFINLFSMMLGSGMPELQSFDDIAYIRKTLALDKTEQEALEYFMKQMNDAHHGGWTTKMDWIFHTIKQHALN

KIT (human), P10721 [D816V], sequence (P10721 whole entry D816V, looked up): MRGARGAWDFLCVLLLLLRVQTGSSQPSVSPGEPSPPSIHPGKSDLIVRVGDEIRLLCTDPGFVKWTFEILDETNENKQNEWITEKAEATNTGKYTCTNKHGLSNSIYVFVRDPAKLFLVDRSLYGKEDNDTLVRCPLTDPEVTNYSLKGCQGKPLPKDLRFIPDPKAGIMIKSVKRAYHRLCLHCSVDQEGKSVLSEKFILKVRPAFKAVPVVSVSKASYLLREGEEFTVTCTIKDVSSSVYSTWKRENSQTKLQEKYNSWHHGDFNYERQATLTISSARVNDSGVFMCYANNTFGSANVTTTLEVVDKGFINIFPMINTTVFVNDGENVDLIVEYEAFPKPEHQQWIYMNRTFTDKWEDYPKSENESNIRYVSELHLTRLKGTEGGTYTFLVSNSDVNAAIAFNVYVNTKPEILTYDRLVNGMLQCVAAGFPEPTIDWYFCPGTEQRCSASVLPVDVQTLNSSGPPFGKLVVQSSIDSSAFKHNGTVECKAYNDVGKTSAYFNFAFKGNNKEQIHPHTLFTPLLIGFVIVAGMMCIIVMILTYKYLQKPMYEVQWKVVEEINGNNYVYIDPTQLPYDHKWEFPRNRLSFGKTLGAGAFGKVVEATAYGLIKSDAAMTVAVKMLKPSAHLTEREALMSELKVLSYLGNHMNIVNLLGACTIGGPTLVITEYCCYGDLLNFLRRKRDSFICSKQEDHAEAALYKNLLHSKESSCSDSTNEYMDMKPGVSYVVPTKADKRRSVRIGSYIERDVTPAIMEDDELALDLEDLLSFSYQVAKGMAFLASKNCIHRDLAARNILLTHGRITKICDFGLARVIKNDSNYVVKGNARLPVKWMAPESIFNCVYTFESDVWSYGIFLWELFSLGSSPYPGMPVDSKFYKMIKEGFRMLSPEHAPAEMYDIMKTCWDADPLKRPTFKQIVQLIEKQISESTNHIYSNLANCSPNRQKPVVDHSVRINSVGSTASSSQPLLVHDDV
PIK3CA (human), P42336 [E545K], sequence (P42336 whole entry E545K, looked up): as the sequence (P42336 whole entry Q546K, looked up) above, with E545K, K546Q counted along it
EIF2AK4 KD2 (human), Q9P2K8 [S808G], sequence (Q9P2K8 whole entry S808G, looked up): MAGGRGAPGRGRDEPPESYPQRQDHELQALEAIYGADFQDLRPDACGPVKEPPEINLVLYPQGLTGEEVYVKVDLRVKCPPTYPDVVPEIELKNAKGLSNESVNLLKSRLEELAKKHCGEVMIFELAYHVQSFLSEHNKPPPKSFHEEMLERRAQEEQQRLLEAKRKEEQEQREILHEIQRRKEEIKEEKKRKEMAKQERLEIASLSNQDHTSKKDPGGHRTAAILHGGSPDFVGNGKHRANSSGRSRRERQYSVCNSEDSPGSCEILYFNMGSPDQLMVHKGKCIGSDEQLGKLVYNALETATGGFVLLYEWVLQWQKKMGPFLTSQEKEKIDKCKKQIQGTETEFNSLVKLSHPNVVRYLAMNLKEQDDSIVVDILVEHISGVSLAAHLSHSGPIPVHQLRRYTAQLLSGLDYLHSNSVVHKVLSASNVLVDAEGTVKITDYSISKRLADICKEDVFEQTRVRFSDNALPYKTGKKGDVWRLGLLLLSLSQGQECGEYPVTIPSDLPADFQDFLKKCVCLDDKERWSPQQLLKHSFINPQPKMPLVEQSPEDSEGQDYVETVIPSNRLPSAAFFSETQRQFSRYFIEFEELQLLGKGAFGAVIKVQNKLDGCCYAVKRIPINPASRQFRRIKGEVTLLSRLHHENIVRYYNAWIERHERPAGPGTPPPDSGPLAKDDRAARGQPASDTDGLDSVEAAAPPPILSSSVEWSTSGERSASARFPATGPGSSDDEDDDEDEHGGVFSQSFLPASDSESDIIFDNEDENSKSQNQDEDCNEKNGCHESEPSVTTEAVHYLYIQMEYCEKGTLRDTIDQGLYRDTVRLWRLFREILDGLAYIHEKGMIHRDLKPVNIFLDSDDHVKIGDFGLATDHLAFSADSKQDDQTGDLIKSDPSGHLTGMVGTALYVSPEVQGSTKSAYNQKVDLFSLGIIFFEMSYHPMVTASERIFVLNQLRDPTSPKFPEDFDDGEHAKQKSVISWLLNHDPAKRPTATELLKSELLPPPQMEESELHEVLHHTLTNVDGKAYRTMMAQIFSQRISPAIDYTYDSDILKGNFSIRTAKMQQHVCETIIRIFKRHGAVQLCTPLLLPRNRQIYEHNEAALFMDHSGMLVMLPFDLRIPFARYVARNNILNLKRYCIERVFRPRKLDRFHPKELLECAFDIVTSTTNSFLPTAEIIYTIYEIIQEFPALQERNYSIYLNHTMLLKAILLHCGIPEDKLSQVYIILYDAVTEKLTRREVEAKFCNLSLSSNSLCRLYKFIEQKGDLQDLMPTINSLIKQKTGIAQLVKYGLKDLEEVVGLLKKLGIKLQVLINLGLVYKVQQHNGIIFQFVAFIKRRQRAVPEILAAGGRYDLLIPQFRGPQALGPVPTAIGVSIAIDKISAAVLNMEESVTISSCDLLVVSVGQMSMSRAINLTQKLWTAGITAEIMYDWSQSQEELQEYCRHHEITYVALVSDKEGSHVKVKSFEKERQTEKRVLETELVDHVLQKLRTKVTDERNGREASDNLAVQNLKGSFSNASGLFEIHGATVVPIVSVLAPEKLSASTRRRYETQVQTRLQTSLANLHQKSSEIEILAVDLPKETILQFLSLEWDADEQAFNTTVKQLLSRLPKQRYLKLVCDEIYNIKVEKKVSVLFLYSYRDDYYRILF
KIT (human), P10721 [V559D/T670I], sequence (P10721 whole entry V559D/T670I, looked up): as the sequence (P10721 whole entry D816V, looked up) above, with V559D, T670I, V816D counted along it
PIK3CA (human), P42336 [C420R], sequence (P42336 whole entry C420R, looked up): as the sequence (P42336 whole entry Q546K, looked up) above, with C420R, K546Q counted along it
PIK3CA (human), P42336 [I800L], sequence (P42336 whole entry I800L, looked up): as the sequence (P42336 whole entry Q546K, looked up) above, with K546Q, I800L counted along it
PIK3CA (human), P42336 [E545A], sequence (P42336 whole entry E545A, looked up): as the sequence (P42336 whole entry Q546K, looked up) above, with E545A, K546Q counted along it
PIK3CA (human), P42336 [H1047Y], sequence (P42336 whole entry H1047Y, looked up): as the sequence (P42336 whole entry Q546K, looked up) above, with K546Q, H1047Y counted along it
KIT (human), P10721 [V559D], sequence (P10721 whole entry V559D, looked up): as the sequence (P10721 whole entry D816V, looked up) above, with V559D, V816D counted along it

Row | Structure (SMILES) | kinase still bound, per cent of control [1] [%] | kinase still bound, per cent of control [2] [%] | kinase still bound, per cent of control [3] [%] | kinase still bound, per cent of control [4] [%] | kinase still bound, per cent of control [5] [%] | kinase still bound, per cent of control [6] [%] | kinase still bound, per cent of control [7] [%] | kinase still bound, per cent of control [8] [%] | kinase still bound, per cent of control [9] [%] | kinase still bound, per cent of control [10] [%] | kinase still bound, per cent of control [11] [%] | kinase still bound, per cent of control [12] [%] | kinase still bound, per cent of control [13] [%] | kinase still bound, per cent of control [14] [%] | kinase still bound, per cent of control [15] [%] | kinase still bound, per cent of control [16] [%] | kinase still bound, per cent of control [17] [%] | kinase still bound, per cent of control [18] [%] | kinase still bound, per cent of control [19] [%]
1 | C=CC(=O)Nc1ccc(C(=O)c2sc(Nc3ccc(N4CCN(C)CC4)cc3OC)nc2N)cc1 | 81 | 82 | 77 | 52 | 51 | 81 | 83 | 73 | 64 | 37 | 67 | 59 | 69 | 83 | 93 | 93 | 88 | 83 | 100
2 | O=c1[nH]c2ccccc2n1C1CCN(Cc2ccc(-c3nc4cc5[nH]cnc5cc4nc3-c3ccccc3)cc2)CC1 | 93 | 78 | 80 | 83 | 66 | 73 | 100 | 60 | 56 | 61 | 79 | 100 | 100 | 62 | 95 | 69 | 100 | 51 | 80
3 | CCCS(=O)(=O)Nc1ccc(F)c(C(=O)c2c[nH]c3ncc(Cl)cc23)c1F | 46 | 46 | 93 | 72 | 34 | 85 | 0.95 | 68 | 17 | 28 | 49 | 46 | 0.05 | 100 | 92 | 100 | 90 | 91 | 86
4 | COc1cc2ncnc(Nc3cccc(Cl)c3)c2cc1OC | 6.6 | 1.4 | 3.3 | 0.9 | 0.1 | 1.4 | 56 | 24 | 35 | 7.2 | 38 | 49 | 16 | 60 | 98 | 71 | 95 | 46 | 82
5 | O=c1cc(N2CCOCC2)oc2c(-c3cccc4c3sc3ccccc34)cccc12 | 100 | 100 | 69 | 100 | 100 | 90 | 100 | 93 | 86 | 100 | 58 | 100 | 80 | 19 | 8.2 | 24 | 11 | 2.2 | 16
6 | CNC(=O)Nc1ccc(-c2nc(N3CC4CCC(C3)O4)c3cnn(C4CCC5(CC4)OCCO5)c3n2)cc1 | 100 | 100 | 38 | 69 | 64 | 62 | 83 | 100 | 69 | 89 | 82 | 100 | 85 | 11 | 8.8 | 11 | 9.6 | 5 | 11
7 | COc1cc2ncnc(-n3nc(-c4ccccn4)nc3N)c2cc1OC | 0.4 | 1.2 | 50 | 57 | 64 | 68 | 1.6 | 5.6 | 21 | 0.4 | 0.15 | 47 | 3.4 | 41 | 18 | 40 | 24 | 2.8 | 38
8 | COc1ccc(N(C(=O)Oc2c(C)cccc2C)c2ccnc(Nc3ccc(N4CCN(C)CC4)cc3)n2)c(OC)c1 | 0.3 | 1.3 | 0 | 0.45 | 0.1 | 0 | 100 | 4.8 | 3.4 | 0.65 | 3.4 | 48 | 0.25 | 100 | 45 | 100 | 94 | 100 | 81
9 | COc1cc(C(=O)N2CCC(N3CCN(C)CC3)CC2)ccc1Nc1ncc2c(n1)N(C)c1ccccc1C(=O)N2C | 80 | 94 | 72 | 86 | 100 | 84 | 95 | 100 | 97 | 73 | 72 | 81 | 100 | 89 | 98 | 100 | 71 | 38 | 91
10 | CN(C)C/C=C/C(=O)Nc1ccc(C(=O)Nc2cccc(Nc3nccc(-c4cccnc4)n3)c2)cc1 | 29 | 29 | 100 | 97 | 56 | 96 | 97 | 30 | 34 | 31 | 30 | 10 | 0.5 | 100 | 100 | 100 | 100 | 60 | 100
